Source: patent publication US11274100B2, “EP300/CREBBP inhibitor” (Daiichi Sankyo Company, Limited, priority 2017, dated 2022)
pIC50: −log10 of the molar value.

Experiments:
[1] = test system: TE-8 cells; assay: Cell growth inhibitory activity, TE-8 cells (Test Example 3); type: cell-based; conditions: Homo sapiens, 72 h, cultured for 3 days, CellTiter-Glo
Experimental: (§1) [Test Example 3] Evaluation of Cell Growth Inhibitory Activity
(§2) As a culture medium for each cell, a 10% FBS supplemented RPMI 1640 medium (for LK2 cells and TE-8 cells derived from human esophageal cancer) was used. LK2 cells were purchased from Human Science Research Resources Bank, and TE-8 cells were purchased from Riken Cell Bank. The compound of each of Examples 1 to 108b was prepared by dilution with Freedom EVO 150 (Tecan Trading AG) (4-fold diluted, 10 stages, 10 mM to 38 nM). The resultant was added to respective wells of a 384-well plate in an amount of 40 nL/well using Echo 555 (Labcyte Inc.). The LK2 or TE-8 cells were seeded in the plate at 400 cells/40 μL/well (day 0), and were cultured for 3 days. On the day of addition of the compound (day 0) and 3 days after the addition of the compound (day 3), an ATP measurement reagent of CellTiter-Glo (registered trademark) 2.0 Assay (Promega Corporation, #G9242) was added to each well in an amount of 10 μL/well, and the amount of luminescence of each well was measured using EnVision. Based on the amount of luminescence (C0) on the day of the addition of the compound, and the amounts of luminescence of a compound non-addition group (C3) and a compound addition group (T3) obtained after the 3-day culture of the compound, a cell survival rate was calculated in accordance with the following expression: Cell survival rate (%)=(T3−C0)/(C3−C0)×100
(§3) A concentration (GI50 value) of each compound at which the growth of the TE-8 or LK-2 cells was inhibited by 50% was calculated by semilogarithmically plotting the cell survival rate at each concentration and the compound concentration.

[2] = test system: LK2 cells; assay: Cell growth inhibitory activity, LK2 cells (Test Example 3); type: cell-based; conditions: Homo sapiens, LK-2, 72 h, cultured for 3 days, CellTiter-Glo
Experimental: as §1, §2, §3

[3] = biological target: EP300 (Homo sapiens, UniProt Q09472); assay: Histone acetyltransferase inhibitory activity against EP300 (Test Example 1); type: biochemical; conditions: 50 ng/mL EP300, 2 μM Acetyl-CoA, 100 nM Histone H4(1-25)-GSGSK (Biotin), 28° C. for 1 hour
Method in brief: (§4)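 Enzyme (50 ng/mL EP300 or 125 ng/mL CREBBP) incubated 1 h at 28° C with 2 μM acetyl-CoA, 100 nM biotinylated histone H4(1-25) peptide and 10 to 0.0006 μM compound in pH 8.0 Tris buffer with 330 nM trichostatin A, 1% DMSO. Reaction stopped with Lys-CoA; acetylation read by TR-FRET (Eu-anti pan-Ac/Sta-ULight) after overnight room-temperature incubation.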

[4] = test system: H3K27Ac; assay: Intracellular H3K27Ac inhibitory activity in LK2 cells (Test Example 2); type: cell-based; conditions: Homo sapiens, LK-2, cultured with compound for 3 hours, read-out: Test Example 2 H3K27Ac Inhibition (LK2) IC50
Method in brief: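 Human squamous lung cancer LK2 cells (40000/well) cultured overnight at 37 °C, 5% CO2 before treatment. After paraformaldehyde fixation, peroxide quench and blocking, H3K27 acetylation detected with anti-acetyl-H3K27 rabbit mAb (4 °C overnight) and HRP secondary; chemiluminescent read-out.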

[5] = biological target: CREBBP (Homo sapiens, UniProt Q92793); assay: Histone acetyltransferase inhibitory activity against CREBBP (Test Example 1); type: biochemical; conditions: 125 ng/mL CREBBP, 2 μM Acetyl-CoA, 100 nM Histone H4(1-25)-GSGSK (Biotin), 28° C. for 1 hour
Method in brief: as §4

Chain of CREBBP (Q92793 whole entry): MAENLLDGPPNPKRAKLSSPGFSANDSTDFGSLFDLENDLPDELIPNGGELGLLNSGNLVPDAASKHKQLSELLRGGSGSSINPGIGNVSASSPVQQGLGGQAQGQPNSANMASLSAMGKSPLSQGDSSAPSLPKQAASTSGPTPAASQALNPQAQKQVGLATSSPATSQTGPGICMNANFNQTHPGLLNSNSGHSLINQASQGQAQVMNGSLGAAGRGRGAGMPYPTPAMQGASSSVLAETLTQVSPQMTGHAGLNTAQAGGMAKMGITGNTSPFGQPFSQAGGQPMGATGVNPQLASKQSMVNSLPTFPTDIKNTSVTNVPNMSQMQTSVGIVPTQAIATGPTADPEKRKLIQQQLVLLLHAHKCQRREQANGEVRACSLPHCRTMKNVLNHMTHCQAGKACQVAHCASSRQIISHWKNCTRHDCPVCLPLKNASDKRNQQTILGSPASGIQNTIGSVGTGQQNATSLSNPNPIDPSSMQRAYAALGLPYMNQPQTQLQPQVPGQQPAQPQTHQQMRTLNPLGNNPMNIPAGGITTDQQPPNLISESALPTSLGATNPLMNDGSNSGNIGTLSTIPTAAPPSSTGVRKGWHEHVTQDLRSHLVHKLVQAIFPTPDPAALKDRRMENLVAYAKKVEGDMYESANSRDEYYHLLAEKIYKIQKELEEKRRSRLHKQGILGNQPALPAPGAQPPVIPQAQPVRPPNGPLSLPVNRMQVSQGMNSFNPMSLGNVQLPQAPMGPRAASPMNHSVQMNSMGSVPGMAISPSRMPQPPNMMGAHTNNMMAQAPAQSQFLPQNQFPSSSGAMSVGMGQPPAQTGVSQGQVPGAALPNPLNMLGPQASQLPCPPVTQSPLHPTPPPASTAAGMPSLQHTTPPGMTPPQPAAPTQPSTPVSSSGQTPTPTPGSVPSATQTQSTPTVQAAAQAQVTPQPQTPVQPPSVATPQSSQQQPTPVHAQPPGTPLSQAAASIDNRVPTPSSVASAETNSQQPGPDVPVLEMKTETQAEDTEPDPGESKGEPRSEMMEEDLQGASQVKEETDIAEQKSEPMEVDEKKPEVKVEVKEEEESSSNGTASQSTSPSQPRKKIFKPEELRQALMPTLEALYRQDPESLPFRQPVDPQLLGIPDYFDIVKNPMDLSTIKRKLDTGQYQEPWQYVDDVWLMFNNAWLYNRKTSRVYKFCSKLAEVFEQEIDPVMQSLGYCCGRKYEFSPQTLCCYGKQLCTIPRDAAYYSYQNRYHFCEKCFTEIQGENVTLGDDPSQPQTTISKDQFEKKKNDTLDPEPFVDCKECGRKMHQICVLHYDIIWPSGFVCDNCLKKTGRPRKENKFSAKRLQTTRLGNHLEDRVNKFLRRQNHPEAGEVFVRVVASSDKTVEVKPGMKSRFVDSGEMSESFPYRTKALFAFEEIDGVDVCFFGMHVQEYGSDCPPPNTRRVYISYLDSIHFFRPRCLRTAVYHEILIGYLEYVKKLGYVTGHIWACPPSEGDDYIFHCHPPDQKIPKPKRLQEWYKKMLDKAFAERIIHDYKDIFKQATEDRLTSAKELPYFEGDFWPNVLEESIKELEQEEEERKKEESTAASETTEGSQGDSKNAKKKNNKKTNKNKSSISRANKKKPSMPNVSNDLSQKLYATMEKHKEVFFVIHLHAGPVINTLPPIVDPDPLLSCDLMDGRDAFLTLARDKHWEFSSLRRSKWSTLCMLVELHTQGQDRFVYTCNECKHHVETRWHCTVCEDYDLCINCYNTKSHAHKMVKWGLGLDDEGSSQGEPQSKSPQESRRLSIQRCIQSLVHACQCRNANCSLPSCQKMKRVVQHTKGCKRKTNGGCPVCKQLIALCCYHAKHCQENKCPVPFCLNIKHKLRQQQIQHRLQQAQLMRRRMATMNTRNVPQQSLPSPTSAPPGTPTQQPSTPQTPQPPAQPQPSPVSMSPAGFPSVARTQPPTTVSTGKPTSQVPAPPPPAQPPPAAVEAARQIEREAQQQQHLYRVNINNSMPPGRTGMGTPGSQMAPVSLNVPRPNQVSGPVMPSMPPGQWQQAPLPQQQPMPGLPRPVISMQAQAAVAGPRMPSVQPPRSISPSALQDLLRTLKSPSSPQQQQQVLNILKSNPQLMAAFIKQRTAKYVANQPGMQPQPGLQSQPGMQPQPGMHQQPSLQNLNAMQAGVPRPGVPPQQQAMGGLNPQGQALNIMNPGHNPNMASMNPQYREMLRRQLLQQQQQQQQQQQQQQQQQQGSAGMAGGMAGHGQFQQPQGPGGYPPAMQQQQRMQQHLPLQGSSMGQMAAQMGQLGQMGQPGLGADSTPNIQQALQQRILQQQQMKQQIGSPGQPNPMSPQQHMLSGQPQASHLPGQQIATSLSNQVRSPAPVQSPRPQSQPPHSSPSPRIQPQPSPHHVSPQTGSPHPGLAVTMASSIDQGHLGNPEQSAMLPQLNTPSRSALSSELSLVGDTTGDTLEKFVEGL
Chain of EP300 (Q09472 whole entry): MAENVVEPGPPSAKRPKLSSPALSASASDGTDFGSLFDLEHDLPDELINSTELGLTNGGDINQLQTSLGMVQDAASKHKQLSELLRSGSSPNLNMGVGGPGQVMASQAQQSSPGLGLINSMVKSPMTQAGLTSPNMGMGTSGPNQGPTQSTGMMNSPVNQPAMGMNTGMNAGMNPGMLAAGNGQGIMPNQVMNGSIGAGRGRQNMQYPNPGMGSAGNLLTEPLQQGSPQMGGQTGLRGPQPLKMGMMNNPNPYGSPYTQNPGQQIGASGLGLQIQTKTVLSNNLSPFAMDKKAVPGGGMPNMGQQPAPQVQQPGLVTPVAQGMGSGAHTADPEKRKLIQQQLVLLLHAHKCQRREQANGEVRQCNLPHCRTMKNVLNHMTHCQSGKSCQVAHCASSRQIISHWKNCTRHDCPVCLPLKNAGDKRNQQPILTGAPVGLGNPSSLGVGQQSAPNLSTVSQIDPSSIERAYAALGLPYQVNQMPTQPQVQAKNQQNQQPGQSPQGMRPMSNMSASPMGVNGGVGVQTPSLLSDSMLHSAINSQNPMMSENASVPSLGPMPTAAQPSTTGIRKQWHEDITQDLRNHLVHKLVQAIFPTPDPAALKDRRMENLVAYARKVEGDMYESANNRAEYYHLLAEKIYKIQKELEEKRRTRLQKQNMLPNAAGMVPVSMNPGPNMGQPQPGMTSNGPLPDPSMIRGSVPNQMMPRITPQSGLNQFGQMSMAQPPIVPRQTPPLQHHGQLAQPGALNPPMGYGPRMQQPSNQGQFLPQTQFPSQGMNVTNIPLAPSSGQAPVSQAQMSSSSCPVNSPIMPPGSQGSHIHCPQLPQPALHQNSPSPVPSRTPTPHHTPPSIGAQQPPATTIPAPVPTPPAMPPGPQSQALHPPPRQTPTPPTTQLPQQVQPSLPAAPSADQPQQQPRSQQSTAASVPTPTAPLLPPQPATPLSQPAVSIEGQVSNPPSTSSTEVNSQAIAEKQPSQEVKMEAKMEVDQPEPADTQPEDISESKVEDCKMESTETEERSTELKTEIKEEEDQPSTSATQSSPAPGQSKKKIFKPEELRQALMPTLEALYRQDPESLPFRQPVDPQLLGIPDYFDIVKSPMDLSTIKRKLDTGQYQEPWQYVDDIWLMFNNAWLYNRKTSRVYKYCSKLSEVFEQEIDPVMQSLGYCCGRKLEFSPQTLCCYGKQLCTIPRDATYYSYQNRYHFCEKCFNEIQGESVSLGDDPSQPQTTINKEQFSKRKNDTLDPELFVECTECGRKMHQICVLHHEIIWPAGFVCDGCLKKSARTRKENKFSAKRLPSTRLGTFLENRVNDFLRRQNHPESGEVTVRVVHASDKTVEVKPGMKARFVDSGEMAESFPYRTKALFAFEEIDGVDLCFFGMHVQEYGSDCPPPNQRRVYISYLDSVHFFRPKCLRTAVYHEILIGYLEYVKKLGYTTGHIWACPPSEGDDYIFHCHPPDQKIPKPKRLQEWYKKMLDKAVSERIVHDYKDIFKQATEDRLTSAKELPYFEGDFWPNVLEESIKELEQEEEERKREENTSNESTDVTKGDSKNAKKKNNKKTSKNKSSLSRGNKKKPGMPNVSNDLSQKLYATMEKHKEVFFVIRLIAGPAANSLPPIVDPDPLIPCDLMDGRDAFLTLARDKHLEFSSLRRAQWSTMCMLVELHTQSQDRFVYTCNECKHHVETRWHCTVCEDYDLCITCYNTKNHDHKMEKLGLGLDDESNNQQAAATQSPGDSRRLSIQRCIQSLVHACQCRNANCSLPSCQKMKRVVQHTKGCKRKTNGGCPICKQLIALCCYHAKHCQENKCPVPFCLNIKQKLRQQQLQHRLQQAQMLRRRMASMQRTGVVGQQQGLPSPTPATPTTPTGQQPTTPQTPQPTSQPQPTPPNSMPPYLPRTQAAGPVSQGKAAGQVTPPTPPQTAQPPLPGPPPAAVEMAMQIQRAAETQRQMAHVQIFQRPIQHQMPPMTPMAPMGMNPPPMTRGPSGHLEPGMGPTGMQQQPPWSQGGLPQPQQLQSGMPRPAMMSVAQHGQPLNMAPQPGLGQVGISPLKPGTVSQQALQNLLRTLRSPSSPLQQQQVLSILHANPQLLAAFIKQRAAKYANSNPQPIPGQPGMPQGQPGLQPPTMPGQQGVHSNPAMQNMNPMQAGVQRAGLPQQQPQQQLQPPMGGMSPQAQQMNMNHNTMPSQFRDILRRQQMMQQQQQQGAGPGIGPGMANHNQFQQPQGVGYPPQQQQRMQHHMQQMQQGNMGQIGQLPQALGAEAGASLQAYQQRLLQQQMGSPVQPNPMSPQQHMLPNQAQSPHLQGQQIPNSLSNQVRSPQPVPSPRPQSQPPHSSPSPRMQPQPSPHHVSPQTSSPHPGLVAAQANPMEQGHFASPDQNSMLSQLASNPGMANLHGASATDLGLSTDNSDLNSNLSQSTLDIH

Compound | pIC50 [3] | pIC50 [4] | pIC50 [5] | GI50 [1] [nM] | GI50 [2] [nM]
COc1ccc(C2(C(=O)N(C)[C@H](CCO)C(=O)Nc3ccc4[nH]ncc4n3)CCC(F)(F)CC2)cc1 [Example 69, 4,4-Difluoro-N-[(2R)-4-hydroxy-1-oxo-1-(1H-pyrazolo[4,3-b]pyridin-5-ylamino)butan-2-yl]-1-(4-methoxyphenyl)-N-methylcyclohexanecarboxamide] | 6.80 | 6.40 | 6.62 | 4190 | 3120
COc1ccc(C2(C(=O)N3C[C@H](F)C[C@@H]3C(=O)Nc3cc4ccccn4n3)CCCCC2)cc1 [Example 70, (4R)-4-Fluoro-1-{[1-(4-methoxyphenyl)cyclohexyl]carbonyl}-N-pyrazolo[1,5-a]pyridin-2-yl-D-prolinamide] | 7.22 | 7.03 | 7.28 | 1070 | 729
COc1ccc(C2(C(=O)N3C[C@@H](O)C[C@@H]3C(=O)Nc3ccc4[nH]ncc4n3)CCCCC2)cc1 [Example 71, (4S)-4-Hydroxy-1-{[1-(4-methoxyphenyl)cyclohexyl]carbonyl}-N-1H-pyrazolo[4,3-b]pyridin-5-yl-D-prolinamide] | 7.00 | 6.86 | 7.03 | 1540 | 797
COc1ccc(C2(C(=O)N(CCO)CC(=O)Nc3ccc4[nH]ncc4n3)CCC(F)(F)CC2)cc1 [Example 72, 4,4-Difluoro-N-(2-hydroxyethyl)-1-(4-methoxyphenyl)-N-[2-oxo-2-(1H-pyrazolo[4,3-b]pyridin-5-ylamino)ethyl]cyclohexanecarboxamide] | 6.75 | 5.94 | 6.74 | > 10000 | > 10000
COc1ccc(C2(C(=O)N3CC[C@@H](O)[C@@H]3C(=O)Nc3ccc4[nH]ccc4n3)CCC(F)(F)CC2)cc1 [Example 74, (3R)-1-{[4,4-Difluoro-1-(4-methoxyphenyl)cyclohexyl]carbonyl}-3-hydroxy-N-1H-pyrrolo[3,2-b]pyridin-5-yl-D-prolinamide] | 7.24 | 7.07 | 7.07 | 599 | 271
COc1ccc(C2(C(=O)N(C)[C@@H](C(=O)Nc3ccc4[nH]ncc4n3)[C@@H](C)O)CCC(F)(F)CC2)cc1 [Example 78, 4,4-Difluoro-N-[(2R,3R)-3-hydroxy-1-oxo-1-(1H-pyrazolo[4,3-b]pyridin-5-ylamino)butan-2-yl]-1-(4-methoxyphenyl)-N-methylcyclohexanecarboxamide] | 6.59 | 6.11 | 6.49 | 4630 | 2150
COc1ccc(C2(C(=O)N3CS(=O)(=O)C[C@@H]3C(=O)Nc3ccc4[nH]c(C)cc4n3)CCC(F)(F)CC2)cc1 [Example 79, (4S)-3-{[4,4-Difluoro-1-(4-methoxyphenyl)cyclohexyl]carbonyl}-N-(2-methyl-1H-pyrrolo[3,2-b]pyridin-5-yl)-1,3-thiazolidine-4-carboxamide 1,1-dioxide] | 6.74 | 6.57 | 6.71 | 1670 | 1390
COc1ccc(C2(C(=O)N(C)[C@@H](C(=O)Nc3ccc4[nH]ncc4n3)[C@H](C)O)CCC(F)(F)CC2)cc1 [Example 80, 4,4-Difluoro-N-[(2R,3S)-3-hydroxy-1-oxo-1-(1H-pyrazolo[4,3-b]pyridin-5-ylamino)butan-2-yl]-1-(4-methoxyphenyl)-N-methylcyclohexanecarboxamide] | 7.11 | 7.77 | 7.04 | 277 | 141

Molecules with a higher pIC50 [3], results first:

pIC50 [3] | pIC50 [4] | pIC50 [5] | Compound | GI50 [1] [nM] | GI50 [2] [nM]
7.25 | 6.73 | 6.92 | COc1ncc(C2(C(=O)N3C[C@H](F)C[C@@H]3C(=O)Nc3ccc4[nH]ncc4n3)CCCC2)cn1 [Example 64] | 1270 | 643
7.74 | 8.05 | 7.43 | COc1ccc(C2(C(=O)N3CS(=O)(=O)C[C@@H]3C(=O)Nc3ccc4[nH]ccc4n3)CCCC2)cc1 [Example 65, (4S)-3-{[1-(4-Methoxyphenyl)cyclopentyl]carbonyl}-N-(1H-pyrrolo[3,2-b]pyridin-5-yl)-1,3-thiazolidine-4-carboxamide 1,1-dioxide] | 151 | 79.2
7.31 | 7.38 | 6.91 | COc1ccc(C2(C(=O)N3CS(=O)(=O)C[C@@H]3C(=O)Nc3ccc4[nH]ncc4n3)CCC(F)(F)CC2)cc1 [Example 68, (4S)-3-{[4,4-Difluoro-1-(4-methoxyphenyl)cyclohexyl]carbonyl}-N-(1H-pyrazolo[4,3-b]pyridin-5-yl)-1,3-thiazolidine-4-carboxamide 1,1-dioxide] | 819 | 510
7.37 | 7.17 | 7.11 | COc1ccc(C2(C(=O)N3CC(=O)C[C@@H]3C(=O)Nc3ccc4[nH]ccc4n3)CCC(F)(F)CC2)cc1 [Example 75, 1-{[4,4-Difluoro-1-(4-methoxyphenyl)cyclohexyl]carbonyl}-4-oxo-N-1H-pyrrolo[3,2-b]pyridin-5-yl-D-prolinamide] | 613 | 398
7.37 | 7.92 | 7.04 | [2H]C([2H])([2H])N(C(=O)C1(c2ccc(OC)cc2)CCC(F)(F)CC1)[C@H](CO)C(=O)Nc1ccc2[nH]ncc2n1 [Example 76, 4,4-Difluoro-N-[(2R)-3-hydroxy-1-oxo-1-(1H-pyrazolo[4,3-b]pyridin-5-ylamino)propan-2-yl]-1-(4-methoxyphenyl)-N—(^2H3)methylcyclohexanecarboxamide] | 127 | 68.9
7.39 | 7.82 | 7.28 | [2H]C([2H])([2H])N(C(=O)C1(c2ccc(OC)cc2)CCC(F)(F)CC1)[C@H](CO)C(=O)Nc1ccc2[nH]ccc2n1 [Example 77, 4,4-Difluoro-N-[(2R)-3-hydroxy-1-oxo-1-(1H-pyrrolo[3,2-b]pyridin-5-ylamino)propan-2-yl]-1-(4-methoxyphenyl)-N—(^2H3)methylcyclohexanecarboxamide] | 199 | 102
7.28 | 7.64 | 7.08 | CC(C)(O)c1ccc(C2(C(=O)N3C[C@H](F)C[C@@H]3C(=O)Nc3ccc4[nH]ncc4n3)CCCCC2)cc1 [Example 81a, (4R)-4-Fluoro-1-({1-[4-(2-hydroxypropan-2-yl)phenyl]cyclohexyl}carbonyl)-N-1H-pyrazolo[4,3-b]pyridin-5-yl-D-prolinamide] | 176 | 167
7.39 | 7.80 | 7.19 | COC(=O)c1ccc(C2(C(=O)N3C[C@H](F)C[C@@H]3C(=O)Nc3ccc4[nH]ncc4n3)CCCCC2)cc1 [Example 81b, methyl 4-(1-{[(2R,4R)-4-Fluoro-2-(1H-pyrazolo[4,3-b]pyridin-5-ylcarbamoyl)pyrrolidin-1-yl]carbonyl}cyclohexyl)benzoate] | 258 | 231
7.92 | 7.89 | 7.68 | O=C(Nc1ccc2[nH]ncc2n1)[C@H]1C[C@@H](F)CN1C(=O)C1(c2ccc(O)cc2)CCCCC1 [Example 82, (4R)-4-Fluoro-1-{[1-(4-hydroxyphenyl)cyclohexyl]carbonyl}-N-1H-pyrazolo[4,3-b]pyridin-5-yl-D-prolinamide] | 89.3 | 75.1
